Experimental findings from patent US20220369639A1, “Fungicide Mixtures” (LANXESS Deutschland GmbH, priority 2019, published 2022) are described below.

SMILES strings stand for the structures. Where two headings read alike, the source gives them in different places.

What all share (type): cell-based
Assay [1] has as its system Aspergillus niger. Briefly: Minimum Inhibitory Concentration (MIC) on nutrient agar petri dishes. An excerpt:
(§1) The term synergism is used when the action of a combination of antimicrobial substances is being evaluated.
(§2) The synergism found for the mixtures according to the invention can be determined via the following mathematical mathematical formula (cf. F. C. Kull, P. C. Elisman, H. D.
(§3) Qa=amount of component A in the active substance mixture which achieves the desired effect, i. e. no microbial growth,
(§4) QA=amount of component A which, when used alone, suppresses the growth of the microorganisms,
(§5) Qb=amount of component B in the active substance mixture which suppresses the growth of the microorganisms,
(§6) QB=amount of component B which, when used alone, suppresses the growth of the microorganisms
(§7) If the sum of the ratios for a mixture Qa/QA+Qb/QB=1, additivity is indicated; if it is <1, synergism has occurred; a value of >1 is indicative of antagonism.
(§8) To determine the antimicrobial efficacy and synergy of active ingredients mixtures, the Minimum Inhibitory Concentration (MIC) of the active substances and their respective combinations were determined. The Minimum Inhibitory
(§9) Concentration of a given antimicrobial compound or mixture is the lowest concentration expressed in […] (ppm) that under defined in vitro conditions inhibits the growth of a given micro-organism (for example bacteria, mould fungi, yeasts). The growth of the microorganisms is observed on petri dishes containing a defined nutrient agar. In the case of fungi, typical strains according to this test design for example would be species like those as indicated in tables 1a) and 1b)

Assay [2] has as its system Fusarium solani. The assay is described as above.
Text: as §1, §2, §3, §4, §5, §6, §7, §8, §9

For assay [3], the system named is Fungi Mix composed of the standard ASTM G 21-09 species. Briefly: Gypsum board mould resistance, ASTM G 21-09 (core protection). Conditions: for Observed growth rating, Fungi Mix: facing papers not treated, 4 weeks at 28-30° C. An excerpt: The fungicide mixtures as of the present invention and of the comparison example to be tested were made as follows: The respective actives were mixed in their respective weight ratio (see table 2) together with water and 1 wt. % dispersant Tristyrylphenol ethoxylate (in form of Soprophor® S 25), as thickener 0.1 wt. % of Xanthan gum and 1 wt. % wetting agent non-ionic EO/PO-Copolymer (in form of Pluronic 127 F), where the wt. % are based on the entire mixture and were homogenized with a high speed mixer (IKA Ultra Turrax Labor Dispergator) to give an aqueous suspension having a viscosity measured in accordance with CIPAC 192 method of 500-600 mPas and a particle size of the biocides of smaller than 30 μm measured in accordance with the CIPAC 187 method.
For examination of the antifungal performance of the inventive mixtures the various mixtures prepared above were tested. The testing directly made in gypsum boards provides realistic and practically relevant data for evaluation. To achieve such data, gypsum boards were produced in the laboratory. For this purpose, a typical slurry recipe as given below for board production is used.
The gypsum slurry is formed by mixing the dry components and the wet components together. The slurry is then mixed to achieve a homogeneous consistency. The fungicide mixtures as prepared above are then incorporated into the wet gypsum slurry respectively (total amount of actives in ppm see table 2) by adding and thoroughly mixing. For sandwiching the gypsum core, untreated cardboard (without fungicide) with a grammage of appr. 180 g/m^2 was used and after assembly of the plate the hand sheets are dried.
The mould resistance of the gypsum board samples was evaluated according to the test method ASTM G 21-09. Following to this method, the manufactured gypsum boards as described above and after having been cut to an adequate size are placed on an agarplate and superficially are spoiled with fungal spores for a determined period of time of at the most 4 weeks. The respective total amount of actives in ppm based in gypsum/plaster ([…]) can be seen in the table.
Spore suspensions are produced for each fungi (spore concentrations of approximately 10^6/ml). Organisms which are included in ASTM G 21 comprise Aspergillus niger (ATCC 9642), Aureobasidium pullulans (ATCC 15233) Chaetomium globosum (ATCC 6205), Gliocladium virens (ATCC 6459) and Penicillium pinophilium (ATCC 11797) (as pure culture but also as mixed inoculum), however any other fungi species known to be able to grow in gypsum boards may be used in addition or instead. Mineral agar (according to ASTM G21 of 2009) was used as growth media in the agar plates. Before inoculation the gypsum board hand sheets are cut into pieces of appr. 5×5 cm.
For every concentration level, 3 test pieces are used in the test. Each sample is placed in a separate petri dish and then inoculated with the fungi mixture. The samples are then incubated at 28-30° C. for 28 days. Pre-reading of the samples may be performed at approximately 10 days after inoculation. The activity of the treatments may be assessed visually, using a rating system of 0-4 for growth inhibition of fungal growth.
Results: The results as recorded after 4 weeks testing at 28-30° C. according to the requirements of test method ASTM G 21 are summarized in table 2.

For `Cc1cc(C)nc(Nc2ccccc2)n1` [PYM, pyrimethanil], the MIC in assay [1] was 500 ppm; in assay [1] (read-out: MIC) it was 250 µg/mL; in assay [2], 1501 ppm; in assay [2] (read-out: MIC), 1000 µg/mL.
In the case of `c1ccc2[nH]c(-c3cscn3)nc2c1` [TBZ, thiabendazole], the “Observed growth rating, Fungi Mix” value in assay [3] (25 ppm on dry stucco in gypsum core) is 4 (Heavy growth (60% to complete coverage)); in assay [3] (50 ppm on dry stucco in gypsum core), 4 (Heavy growth (60% to complete coverage)); in assay [3] (100 ppm on dry stucco in gypsum core), 4 (Heavy growth (60% to complete coverage)); in assay [3] (200 ppm on dry stucco in gypsum core), 4 (Heavy growth (60% to complete coverage)); in assay [3] (300 ppm on dry stucco in gypsum core), 3 (Medium growth (30 to 60%)). Besides, in assay [3] (tested concentration range 25-300 ppm, comparison with TBZ/PYM mixtures), the “Control of fungi growth on gypsum board (interpretation of Table 2)” value is given as “not good enough”. In addition, the MIC in assay [2] (read-out: MIC) is 250 µg/mL.
